Series [1] has as its system Echinochloa crus-galli (ECHCG). As to the kind of experiment: Example B post-emergence herbicidal activity, glasshouse pot test. The class given is in vivo. Particulars: 312 h, evaluated after 13 days, read-out: ECHCG post-emergence activity (100=total damage to plant; 0=no damage to plant); for pest or weed control at 250 g/ha: rate 250 g/ha. Put shortly:
(§1)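 Seeds sown in standard soil in pots were sprayed 1 day (pre-emergence) or 8 days (post-emergence) after sowing with active ingredient in acetone/water (50:50) containing 0.5% Tween 20. Plants were held in a glasshouse at 24/16° C day/night, 14 h light, 65% humidity, and damage was scored after 13 days (0–100).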

Series [2] relates to Alopecurus myosuroides (ALOMY). The description is as above. Type of series: in vivo. Particulars: 312 h, evaluated after 13 days, read-out: ALOMY post-emergence activity (100=total damage to plant; 0=no damage to plant); for pest or weed control at 250 g/ha: rate 250 g/ha. Put shortly:
as §1

In series [3] the test system is Setaria faberi (SETFA). The series is described as above. The class given is in vivo. Particulars: 312 h, evaluated after 13 days, read-out: SETFA post-emergence activity (100=total damage to plant; 0=no damage to plant); for pest or weed control at 250 g/ha: rate 250 g/ha. A digest of the protocol:
as §1

In series [4] the test system is Avena fatua (AVEFA). The description is as above. The class given is in vivo. The note with it: 312 h, evaluated after 13 days, read-out: AVEFA post-emergence activity (100=total damage to plant; 0=no damage to plant); for pest or weed control at 250 g/ha: rate 250 g/ha. Put shortly: as §1
The subject of series [5] is Echinochloa crus-galli (ECHCG). The series can be described thus: Example B pre-emergence herbicidal activity, glasshouse pot test. The note with it: 312 h, first table (headed Post-Emergence, taken as pre-emergence), evaluated after 13 days, read-out: ECHCG activity (100=total damage to plant; 0=no damage to plant); for pest or weed control at 250 g/ha: rate 250 g/ha. The class given is in vivo. A digest of the protocol: as §1

For series [6], the system named is Alopecurus myosuroides (ALOMY). The series is described as above. Type of series: in vivo. Particulars: 312 h, first table (headed Post-Emergence, taken as pre-emergence), evaluated after 13 days, read-out: ALOMY activity (100=total damage to plant; 0=no damage to plant); for pest or weed control at 250 g/ha: rate 250 g/ha. A digest of the protocol: as §1
Series [7] has as its system Setaria faberi (SETFA). The series is described as above. Particulars: 312 h, first table (headed Post-Emergence, taken as pre-emergence), evaluated after 13 days, read-out: SETFA activity (100=total damage to plant; 0=no damage to plant); for pest or weed control at 250 g/ha: rate 250 g/ha. Type of series: in vivo. A digest of the protocol:
as §1

Series [8] has as its system Avena fatua (AVEFA). The series is described as above. The class given is in vivo. Particulars: 312 h, first table (headed Post-Emergence, taken as pre-emergence), evaluated after 13 days, read-out: AVEFA activity (100=total damage to plant; 0=no damage to plant); for pest or weed control at 250 g/ha: rate 250 g/ha. Put shortly:
as §1

For series [9], the system named is Digitaria sanguinalis (DIGSA). The series can be described thus: Example A pre-emergence herbicidal activity, glasshouse pot test. The class given is in vivo. Particulars: 480 h, rate 250 g/ha, evaluated 20 days after spraying, read-out: DIGSA pre-emergence activity (100=total damage to plant; 0=no damage to plant). On the procedure:
(§2) Monocotyledonous and dicotyledonous test plants are sown in standard soil in pots. After cultivation for one day (pre-emergence) or after 10 days cultivation (post-emergence) under controlled conditions in a glasshouse, the plants are sprayed with an aqueous spray solution derived from the formulation of the technical active ingredient in 0.6 ml acetone and 45 ml formulation solution containing 10.6% Emulsogen EL (Registry number 61791-12-6), 42.2% N-methylpyrrolidone, 42.2% dipropylene glycol monomethyl ether (Registry number 34590-94-8) and 0.2% X-77 (Registry number 11097-66-8). The test plants are then grown in a greenhouse under optimum conditions until, 15 days later for post-emergence and 20 days for pre-emergence, the test is evaluated (100=total damage to plant; 0=no damage to plant). Test Plants: Alopecurus myosuroides (ALOMY), Avena fatua (AVEFA), Lolium perenne (LOLPE), Setaria faberi (SETFA), Digitaria sanguinalis (DIGSA), Echinochloa crus-galli (ECHCG) Pre-Emergence Activity

In series [10] the test system is Echinochloa crus-galli (ECHCG). The series is described as above. The class given is in vivo. The note with it: 480 h, rate 250 g/ha, evaluated 20 days after spraying, read-out: ECHOG pre-emergence activity (100=total damage to plant; 0=no damage to plant). On the procedure:
as §2

Series [11] has as its system Alopecurus myosuroides (ALOMY). The series is described as above. Type of series: in vivo. The note with it: 480 h, rate 250 g/ha, evaluated 20 days after spraying, read-out: ALOMY pre-emergence activity (100=total damage to plant; 0=no damage to plant). As for the experimental part:
as §2

Series [12] relates to Setaria faberi (SETFA). The description is as above. The class given is in vivo. Particulars: 480 h, rate 250 g/ha, evaluated 20 days after spraying, read-out: SETFA pre-emergence activity (100=total damage to plant; 0=no damage to plant). As for the experimental part:
as §2

Series [13] has as its system Lolium perenne (LOLPE). Described as above. Type of series: in vivo. Particulars: 480 h, rate 250 g/ha, evaluated 20 days after spraying, read-out: LOLPE pre-emergence activity (100=total damage to plant; 0=no damage to plant). On the procedure: as §2
The test system of series [14] is Avena fatua (AVEFA). Described as above. The note with it: 480 h, rate 250 g/ha, evaluated 20 days after spraying, read-out: AVEFA pre-emergence activity (100=total damage to plant; 0=no damage to plant). The class given is in vivo. As for the experimental part:
as §2

Series [15] has as its system Digitaria sanguinalis (DIGSA). The series can be described thus: Example A post-emergence herbicidal activity, glasshouse pot test. Type of series: in vivo. Particulars: 360 h, rate 125 g/ha, evaluated 15 days after spraying, read-out: DIGSA post-emergence activity (100=total damage to plant; 0=no damage to plant). As for the experimental part:
as §2, with “Post-Emergence” for “Pre-Emergence”

Series [16] relates to Echinochloa crus-galli (ECHCG). Described as above. Type of series: in vivo. The note with it: 360 h, rate 125 g/ha, evaluated 15 days after spraying, read-out: ECHOG post-emergence activity (100=total damage to plant; 0=no damage to plant). As for the experimental part:
as §2, with “Post-Emergence” for “Pre-Emergence”

The test system of series [17] is Alopecurus myosuroides (ALOMY). The series is described as above. The note with it: 360 h, rate 125 g/ha, evaluated 15 days after spraying, read-out: ALOMY post-emergence activity (100=total damage to plant; 0=no damage to plant). Type of series: in vivo. On the procedure: as §2, with “Post-Emergence” for “Pre-Emergence”
Series [18] deals with Setaria faberi (SETFA). Described as above. The class given is in vivo. Particulars: 360 h, rate 125 g/ha, evaluated 15 days after spraying, read-out: SETFA post-emergence activity (100=total damage to plant; 0=no damage to plant). On the procedure: as §2, with “Post-Emergence” for “Pre-Emergence”
In series [19] the test system is Lolium perenne (LOLPE). The description is as above. The note with it: 360 h, rate 125 g/ha, evaluated 15 days after spraying, read-out: LOLPE post-emergence activity (100=total damage to plant; 0=no damage to plant). The class given is in vivo. As for the experimental part: as §2, with “Post-Emergence” for “Pre-Emergence”
In series [20] the test system is Avena fatua (AVEFA). Described as above. The class given is in vivo. The note with it: 360 h, rate 125 g/ha, evaluated 15 days after spraying, read-out: AVEFA post-emergence activity (100=total damage to plant; 0=no damage to plant). As for the experimental part: as §2, with “Post-Emergence” for “Pre-Emergence”

Broadly, the melting point is the temperature of the solid-liquid transition. `C=CCOC(=O)OC1=C(c2c(C)cc(C)cc2C)C(=O)NC12CCN(OC)CC2` [Compound P43]: the melting point fell in the range of 174 to 176 °C. In addition, the pest or weed control at 1000 g/ha in series [1] (rate 1000 g/ha) was 90%. The pest or weed control at 1000 g/ha in [2] (rate 1000 g/ha) worked out at 90%. Further, the pest or weed control at 1000 g/ha in series [3] (rate 1000 g/ha) is 90%. Also, the pest or weed control at 1000 g/ha in series [4] (rate 1000 g/ha) amounted to 90%. The pest or weed control at 1000 g/ha in [5] (rate 1000 g/ha) was 100%. Moreover, the pest or weed control at 1000 g/ha in [6] (rate 1000 g/ha) is 100%. Moreover, the pest or weed control at 1000 g/ha in series [7] (rate 1000 g/ha) was determined as 100%. Besides, the pest or weed control at 1000 g/ha in series [8] (rate 1000 g/ha) came to 90%. In series [9], the pest or weed control at 250 g/ha came out at 90%. Also, the pest or weed control at 250 g/ha in series [10] came to 80%. For the same compound, in series [11], the pest or weed control at 250 g/ha was 80%. Besides, the pest or weed control at 250 g/ha in series [12] was 80%. In addition, the pest or weed control at 250 g/ha in series [13] worked out at 70%. The pest or weed control at 250 g/ha in series [14] amounted to 70%. The pest or weed control at 125 g/ha in [15] is 70%. Further, in series [16], the pest or weed control at 125 g/ha came to 60%. For the same compound, the pest or weed control at 125 g/ha in series [17] worked out at 60%. Besides, in [18], the pest or weed control at 125 g/ha came to 50%. In series [19], the pest or weed control at 125 g/ha was 70%. For the same compound, in series [20], the pest or weed control at 125 g/ha turned out to be 40%.

Regarding `CCOC(=O)OC1=C(c2cc(-c3ccc(Cl)cc3)c(C)cc2C)C(=O)NC12CCN(OC)CC2` [Compound P53], the melting point was in the range of 211 to 213 °C. The pest or weed control at 250 g/ha in [1] stood at 90%. In addition, in series [2], the pest or weed control at 250 g/ha was found to be 70%. For the same compound, in series [3], the pest or weed control at 250 g/ha is 90%. In addition, the pest or weed control at 250 g/ha in series [4] was 30%. Besides, the pest or weed control at 250 g/ha in series [5] was 0%. Moreover, in series [6], the pest or weed control at 250 g/ha was found to be 0%. The pest or weed control at 250 g/ha in [7] was found to be 80%. Also, the pest or weed control at 250 g/ha in series [8] amounted to 0%. Besides, in series [9], the pest or weed control at 250 g/ha worked out at 60%. Further, in [10], the pest or weed control at 250 g/ha stood at 50%. The pest or weed control at 250 g/ha in series [11] turned out to be 0%. Also, the pest or weed control at 250 g/ha in series [12] was 40%. In [13], the pest or weed control at 250 g/ha amounted to 20%. The pest or weed control at 250 g/ha in series [14] was 30%. For the same compound, the pest or weed control at 125 g/ha in series [15] came out at 60%. In addition, in series [16], the pest or weed control at 125 g/ha came out at 60%. The pest or weed control at 125 g/ha in series [17] was determined as 20%. For the same compound, in [18], the pest or weed control at 125 g/ha is 50%. Further, the pest or weed control at 125 g/ha in series [19] stood at 0%. Besides, the pest or weed control at 125 g/ha in series [20] is 0%.

With `CON1CCC2(CC1)NC(=O)C(c1ccc(Br)cc1Cl)=C2OC(=O)C(C)(C)C` [Compound P67], the melting point was 223 to 225 °C. The pest or weed control at 250 g/ha in series [1] amounted to 100%. Also, the pest or weed control at 250 g/ha in [2] turned out to be 100%. Further, the pest or weed control at 250 g/ha in series [3] amounted to 90%. For the same compound, in series [4], the pest or weed control at 250 g/ha was 60%. Further, the pest or weed control at 250 g/ha in [5] amounted to 70%. The pest or weed control at 250 g/ha in [6] worked out at 80%. The pest or weed control at 250 g/ha in series [7] was 100%. For the same compound, in series [8], the pest or weed control at 250 g/ha was determined as 60%. In series [9], the pest or weed control at 250 g/ha came out at 20%. The pest or weed control at 250 g/ha in series [10] worked out at 60%. Moreover, in [11], the pest or weed control at 250 g/ha worked out at 0%. The pest or weed control at 250 g/ha in series [12] is 50%. Besides, in series [13], the pest or weed control at 250 g/ha was found to be 10%. In series [14], the pest or weed control at 250 g/ha worked out at 40%. Besides, the pest or weed control at 125 g/ha in series [15] is 80%. Moreover, the pest or weed control at 125 g/ha in series [16] stood at 70%. In series [17], the pest or weed control at 125 g/ha was determined as 40%. In addition, the pest or weed control at 125 g/ha in series [18] came to 70%. For the same compound, in series [19], the pest or weed control at 125 g/ha stood at 40%. For the same compound, in [20], the pest or weed control at 125 g/ha was 60%.

The values above are taken from patent US8722578B2, “Spiroheterocyclic pyrrolidinedione herbicidal compositions” (Syngenta Participations AG, priority 2008, dated 2014).
